Measured values reported in patent US8455469B2, “Use of norgestimate as a selective inhibitor of TRPC3, TRPC6 and TRPC7 ion channels” (Sanofi, priority 2007, dated 2013).

Key:
TRPC6 = target: T1, TRPC6 (Homo sapiens, UniProt Q9Y210); assay: FLIPR Ca2+ influx measurement, OAG-activated TRPC6 HEK293 cells; format: cell-based; settings: 30 μM OAG
T1 construct: expressed in transfected cells; host or cells: HEK293 (inducible expression)
T1 sequence (Q9Y210 1-931): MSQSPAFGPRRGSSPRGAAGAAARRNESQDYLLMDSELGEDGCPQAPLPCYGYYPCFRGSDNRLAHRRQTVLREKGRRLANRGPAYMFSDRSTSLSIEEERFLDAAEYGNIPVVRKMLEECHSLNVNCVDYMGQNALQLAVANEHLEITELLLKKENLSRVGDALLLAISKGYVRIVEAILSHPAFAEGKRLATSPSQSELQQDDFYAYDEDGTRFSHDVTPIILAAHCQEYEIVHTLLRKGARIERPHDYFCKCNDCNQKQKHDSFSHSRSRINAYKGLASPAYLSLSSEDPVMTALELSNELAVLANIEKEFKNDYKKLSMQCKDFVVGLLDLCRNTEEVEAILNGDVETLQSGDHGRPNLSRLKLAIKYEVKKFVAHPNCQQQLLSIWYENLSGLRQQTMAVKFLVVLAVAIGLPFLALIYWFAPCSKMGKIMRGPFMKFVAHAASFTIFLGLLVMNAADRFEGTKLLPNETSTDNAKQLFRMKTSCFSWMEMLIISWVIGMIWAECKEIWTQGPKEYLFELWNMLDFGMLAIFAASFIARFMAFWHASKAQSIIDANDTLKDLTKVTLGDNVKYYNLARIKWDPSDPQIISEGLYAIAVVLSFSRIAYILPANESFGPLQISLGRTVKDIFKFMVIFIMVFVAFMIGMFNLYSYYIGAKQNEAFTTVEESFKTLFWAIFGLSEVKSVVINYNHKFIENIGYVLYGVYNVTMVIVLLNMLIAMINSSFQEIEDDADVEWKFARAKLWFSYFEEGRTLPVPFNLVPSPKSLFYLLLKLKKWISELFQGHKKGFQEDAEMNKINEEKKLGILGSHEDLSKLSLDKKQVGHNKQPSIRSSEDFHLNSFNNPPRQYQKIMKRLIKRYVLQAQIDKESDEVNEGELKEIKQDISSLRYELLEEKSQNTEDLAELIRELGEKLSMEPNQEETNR
From the text: In general, cells are provided which express a TRPC channel. Such cells can be produced using genetic methods known to a person skilled in the art. After having induced the expression of the TRPC channel, cells are usually plated into e.g. microtiter plates and grown. Usually the cells grow at the bottom of multiwell plates and are fixed. Thereafter, the cells are generally washed and loaded with a dye in a suitable loading buffer, preferably with a fluorescent dye such as fluo4am. After having removed the loading buffer, the cells are incubated with the test compound or modulator, in particular with a biochemical or chemical test compound as described above, e.g. in the form of a chemical compound library. Ca^2+ measurements can be carried out using e.g. a Fluorescence Imaging Plate Reader (FLIPR). To stimulate Ca^2+ influx through the TRPC channel a channel activator such as OAG should generally be applied.
TRPC3 and TRPC6 were directly activated by application of oleoyl-2-acetyl-sn-glycerol (OAG), a membrane permeable diacylglycerol analogue.
(A, C) Time-dependent changes of intracellular Ca^2+ concentration ([Ca^2+]i) of fluo-4-loaded induced TRPC3 HEK293 cells (A) and TRPC6 HEK293 cells (C). […] Measurements were performed in 96er well plates using FLIPR (Molecular Devices, Sunnyvale, Calif., USA) (B, D) Determination of norgestimates IC50 value on TRPC3 (B) and TRPC6 (D). […]

TRPC5 = target: T2, TRPC5 (Homo sapiens, UniProt Q9UL62); assay: Whole-cell patch clamp, AlF4- activated TRPC5 HEK293 cells; format: cell-based; settings: 10 μM, -70 mV, n=20
T2 construct: expressed in transfected cells; host or cells: HEK293 FITR (inducible expression)
T2 sequence (Q9UL62 1-973): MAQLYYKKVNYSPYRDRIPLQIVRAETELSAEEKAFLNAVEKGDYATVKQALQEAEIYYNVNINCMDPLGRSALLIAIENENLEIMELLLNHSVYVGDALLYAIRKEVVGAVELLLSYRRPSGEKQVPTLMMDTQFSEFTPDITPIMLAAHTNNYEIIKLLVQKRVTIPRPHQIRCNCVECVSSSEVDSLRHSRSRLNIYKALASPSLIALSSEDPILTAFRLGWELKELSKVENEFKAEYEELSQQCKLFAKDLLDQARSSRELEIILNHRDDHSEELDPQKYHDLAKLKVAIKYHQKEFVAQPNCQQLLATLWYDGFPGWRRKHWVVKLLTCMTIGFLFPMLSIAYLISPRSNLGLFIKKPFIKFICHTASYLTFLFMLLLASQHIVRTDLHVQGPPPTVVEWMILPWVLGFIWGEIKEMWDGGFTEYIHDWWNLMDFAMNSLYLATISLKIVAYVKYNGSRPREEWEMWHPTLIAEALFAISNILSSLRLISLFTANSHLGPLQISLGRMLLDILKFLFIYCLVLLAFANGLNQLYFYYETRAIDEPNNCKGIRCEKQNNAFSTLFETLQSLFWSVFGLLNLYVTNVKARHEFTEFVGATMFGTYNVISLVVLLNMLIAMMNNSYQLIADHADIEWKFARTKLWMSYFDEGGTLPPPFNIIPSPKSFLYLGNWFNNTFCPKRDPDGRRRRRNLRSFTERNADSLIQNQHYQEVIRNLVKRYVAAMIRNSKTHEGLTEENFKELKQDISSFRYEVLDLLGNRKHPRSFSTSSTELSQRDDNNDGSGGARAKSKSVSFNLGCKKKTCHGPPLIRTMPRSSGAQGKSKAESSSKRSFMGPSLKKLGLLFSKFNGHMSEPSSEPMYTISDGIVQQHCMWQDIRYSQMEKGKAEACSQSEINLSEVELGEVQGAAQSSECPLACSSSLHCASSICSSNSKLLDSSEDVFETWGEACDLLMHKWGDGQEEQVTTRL
Procedure: Channels were indirectly excited with the same stimulus for better comparability of the norgestimate effect. Aluminium tetrafluoride (AIF^4−) applied intracellularly via the patch pipette activates G-proteins by mimicking GTP (Sternweis & Gilman, 1982; Bigay et al., 1987).
Since these channels are potentiated by micromolar La^3+ concentrations (Jung et al., 2003), 2-aminoethoxydiphenyl borate (2-APB), a characterized TRPC5 blocker (Xu et al., 2005) was used instead.
Effect of 10 μM norgestimate (NG) on whole-cell currents evoked by AlF4^− infusion into induced TRPC6— (A) and TRPC5 HEK 293 (B) cells. Whole cell currents recorded at −70 mV (left panels) and the corresponding current-voltage (I-V) relationships are shown (right panels). […] The curves were obtained during voltage ramps from −100 to +80 mV. (C) Statistical analysis of the norgestimate effect on TRPC5— and TRPC6-mediated currents.

C#C[C@]1(OC(C)=O)CC[C@H]2[C@@H]3CCC4=C/C(=N/O)CC[C@@H]4[C@H]3CC[C@@]21CC [norgestimate, D-17β-acetoxy-B-ethyl-17α ethinyl-gon-4-en-3-one oxime]
IC50 (TRPC6; FLIPR, n=4): 5.2 ± 0.4 µM | TRPC6-mediated Ca2+ influx following application of OAG (TRPC6; cells preincubated with 30 μM norgestimate): strongly reduced | TRPC5 current blocked (TRPC5): 25.9±5.7%
